Converted amounts (≈) assume the structure as drawn.
Experiments:
Test in all cases: Antibacterial activity MIC, two-fold agar dilution
Type in all cases: cell-based
[1] = tested on: Streptococcus faecalis ATCC 29212; settings: Enterococcus faecalis, ATCC29212; Streptococcus faecalis ATCC 29212; Muller-Hinton agar, 37° C., 20 hours; read-out: Antibacterial Activity MIC
Method: (§1) These MIC values were taken by employing a two-fold dilution method: that is, two-fold serial dilutions of each of the test compounds were made and dispersed in a Muller-Hinton agar medium; 2 μl of the standard test strain which had the 10^7 CFU(Colony Forming Unit) per ml was inoculated on the medium; and these were incubated at 37° C. for 20 hours. The results of the MIC tests are shown Table 1.

[2] = tested on: Acinetobacter calcoaceticus ATCC 15473; settings: ATCC15473; Acinetobacter calcoaceticus ATCC 15473; Muller-Hinton agar, 37° C., 20 hours; read-out: Antibacterial Activity MIC
Method: as §1

[3] = tested on: Citrobacter freundii ATCC 8090; settings: ATCC8090; Citrobacter freundii ATCC 8090; Muller-Hinton agar, 37° C., 20 hours; read-out: Antibacterial Activity MIC
Method: as §1

[4] = tested on: Staphylococcus aureus ATCC 6538p; settings: ATCC6538P; Staphylococcus aureus ATCC 6538p; Muller-Hinton agar, 37° C., 20 hours; read-out: Antibacterial Activity MIC
Method: as §1

[5] = tested on: Pseudomonas aeruginosa ATCC 27853; settings: ATCC27853; Pseudomonas aeruginosa ATCC 27853; Muller-Hinton agar, 37° C., 20 hours; read-out: Antibacterial Activity MIC
Method: as §1

[6] = tested on: Proteus mirabilis ATCC 25933; settings: ATCC25933; Proteus mirabilis ATCC 25933; Muller-Hinton agar, 37° C., 20 hours; read-out: Antibacterial Activity MIC
Method: as §1

[7] = tested on: Serratia marcescens ATCC 27117; settings: ATCC27117; Serratia marcescens ATCC 27117; Muller-Hinton agar, 37° C., 20 hours; read-out: Antibacterial Activity MIC
Method: as §1

[8] = tested on: Providencia rettgeri ATCC 9250; settings: ATCC9250, Muller-Hinton agar, 37° C., 20 hours
Method: as §1

[9] = tested on: Staphylococcus aureus ATCC 10537; settings: ATCC10537; Staphylococcus aureus ATCC 10537; Muller-Hinton agar, 37° C., 20 hours; read-out: Antibacterial Activity MIC
Method: as §1

[10] = tested on: Micrococcus luteus ATCC 9341; settings: ATCC9341; Micrococcus luteus ATCC 9341; Muller-Hinton agar, 37° C., 20 hours; read-out: Antibacterial Activity MIC
Method: as §1

[11] = tested on: Shigella flexneri ATCC 11836; settings: ATCC11836, Muller-Hinton agar, 37° C., 20 hours
Method: as §1

[12] = tested on: Escherichia coli ATCC 10536; settings: ATCC10536, Muller-Hinton agar, 37° C., 20 hours
Method: as §1

[13] = tested on: Bacillus megaterium ATCC 9885; settings: Priestia megaterium, ATCC9885; Bacillus megaterium ATCC 9885; Muller-Hinton agar, 37° C., 20 hours; read-out: Antibacterial Activity MIC
Method: as §1

[14] = tested on: Staphylococcus epidermidis ATCC 12228; settings: ATCC12228; Staphylococcus epidermidis ATCC 12228; Muller-Hinton agar, 37° C., 20 hours; read-out: Antibacterial Activity MIC
Method: as §1

[15] = tested on: Pseudomonas aeruginosa ATCC 25619; settings: ATCC25619; Pseudomonas aeruginosa ATCC 25619; Muller-Hinton agar, 37° C., 20 hours; read-out: Antibacterial Activity MIC
Method: as §1

[16] = tested on: Klebsiella pneumoniae ATCC 10031; settings: ATCC10031; Klebsiella pneumoniae ATCC 10031; Muller-Hinton agar, 37° C., 20 hours; read-out: Antibacterial Activity MIC
Method: as §1

[17] = tested on: Enterobacter cloacae ATCC 27508; settings: ATCC27508; Enterobacter cloacae ATCC 27508; Muller-Hinton agar, 37° C., 20 hours; read-out: Antibacterial Activity MIC
Method: as §1

[18] = tested on: Proteus vulgaris ATCC 6059; settings: ATCC6059; Proteus vulgaris ATCC 6059; Muller-Hinton agar, 37° C., 20 hours; read-out: Antibacterial Activity MIC
Method: as §1

[19] = tested on: Enterobacter aerogenes ATCC 29751; settings: Klebsiella aerogenes, ATCC29751; Enterobacter aerogenes ATCC 29751; Muller-Hinton agar, 37° C., 20 hours; read-out: Antibacterial Activity MIC
Method: as §1

[20] = tested on: Salmonella typhimurium ATCC 14028; settings: Salmonella enterica; Salmonella typhimurium ATCC 14028; Muller-Hinton agar, 37° C., 20 hours; read-out: Antibacterial Activity MIC
Method: as §1

[21] = tested on: Morganella morganii ATCC 8076h; settings: ATCC8076H, Muller-Hinton agar, 37° C., 20 hours
Method: as §1

[22] = tested on: Escherichia coli ATCC 25922; settings: ATCC25922, Muller-Hinton agar, 37° C., 20 hours
Method: as §1

[23] = tested on: Bacillus cereus ATCC 11778; settings: ATCC11778; Bacillus cereus ATCC 11778; Muller-Hinton agar, 37° C., 20 hours; read-out: Antibacterial Activity MIC
Method: as §1

[24] = tested on: Pseudomonas aeruginosa ATCC 10145; settings: ATCC10145; Pseudomonas aeruginosa ATCC 10145; Muller-Hinton agar, 37° C., 20 hours; read-out: Antibacterial Activity MIC
Method: as §1

[25] = tested on: Shigella sonnei ATCC 11060; settings: ATCC11060, Muller-Hinton agar, 37° C., 20 hours
Method: as §1

| SMILES | MIC [1] [µg/mL] | MIC [2] [µg/mL] | MIC [3] [µg/mL] | MIC [4] [µg/mL] | MIC [5] [µg/mL] | MIC [6] [µg/mL] | MIC [7] [µg/mL] | MIC [8] [µg/mL] | MIC [9] [µg/mL] | MIC [10] [µg/mL] | MIC [11] [µg/mL] | MIC [12] [µg/mL] | MIC [13] [µg/mL] | MIC [14] [µg/mL] | MIC [15] [µg/mL] | MIC [16] [µg/mL] | MIC [17] [µg/mL] | MIC [18] [µg/mL] | MIC [19] [µg/mL] | MIC [20] [µg/mL] | also measured |
| --- | --- | --- | --- | --- | --- | --- | --- | --- | --- | --- | --- | --- | --- | --- | --- | --- | --- | --- | --- | --- | --- |
| CO/N=C(\C(=O)N[C@@H]1C(=O)N2C(C(=O)[O-])=C(CSc3cc(N)nc(N)[n+]3C)CS[C@H]12)c1csc(N)n1 [Compound I-7, (6R,7R)-7-[(Z)-2-(2-aminothiazol-4-yl)-2-(methoxyimino)acetamido]-3-(2,6-diamino-3-methylpyrimidinium-4-yl)thiomethyl-3-cephem-4-carboxylate] | > 128 | 8 (≈ 14.5 µM) | 0.25 (≈ 0.453 µM) | 2 (≈ 3.63 µM) | 32 (≈ 58 µM) | 0.031 (≈ 0.0562 µM) | 0.5 (≈ 0.906 µM) | ≤ 0.008 | 1 (≈ 1.81 µM) | 0.063 (≈ 0.114 µM) | 0.063 (≈ 0.114 µM) | 0.13 (≈ 0.236 µM) | 0.13 (≈ 0.236 µM) | 0.5 (≈ 0.906 µM) | 2 (≈ 3.63 µM) | 0.016 (≈ 0.029 µM) | 0.016 (≈ 0.029 µM) | 0.063 (≈ 0.114 µM) | 0.5 (≈ 0.906 µM) | 1 (≈ 1.81 µM) | MIC [21]: 0.016 µg/mL (≈ 0.029 µM); MIC [22]: 0.13 µg/mL (≈ 0.236 µM); MIC [23]: 64 µg/mL (≈ 116 µM); MIC [24]: 64 µg/mL (≈ 116 µM); MIC [25]: 0.5 µg/mL (≈ 0.906 µM) |
| CC[n+]1c(SCC2=C(C(=O)[O-])N3C(=O)[C@@H](NC(=O)/C(=N\OC)c4csc(N)n4)[C@H]3SC2)cc(N)nc1N [Compound I-8, (6R,7R)-7-[(Z)-2-(2-aminothiazol-4-yl)-2-(methoxyimino)acetamido]-3-(2,6-diamino-3-ethylpyrimidinium-4-yl)thiomethyl-3-cephem-4-carboxylate] | > 128 | 8 (≈ 14.1 µM) | 0.13 (≈ 0.23 µM) | 2 (≈ 3.54 µM) | 16 (≈ 28.3 µM) | 0.031 (≈ 0.0548 µM) | 0.5 (≈ 0.884 µM) | ≤ 0.008 | 1 (≈ 1.77 µM) | 0.063 (≈ 0.111 µM) | 0.063 (≈ 0.111 µM) | 0.063 (≈ 0.111 µM) | 0.13 (≈ 0.23 µM) | 0.5 (≈ 0.884 µM) | 2 (≈ 3.54 µM) | 0.016 (≈ 0.0283 µM) | 0.016 (≈ 0.0283 µM) | 0.063 (≈ 0.111 µM) | 0.5 (≈ 0.884 µM) | 0.5 (≈ 0.884 µM) | MIC [21]: 0.016 µg/mL (≈ 0.0283 µM); MIC [22]: 0.063 µg/mL (≈ 0.111 µM); MIC [23]: 64 µg/mL (≈ 113 µM); MIC [24]: 32 µg/mL (≈ 56.6 µM); MIC [25]: 0.5 µg/mL (≈ 0.884 µM) |
| CCO/N=C(\C(=O)N[C@@H]1C(=O)N2C(C(=O)[O-])=C(CSc3cc(N)[n+](C)c(N)n3)CS[C@H]12)c1nsc(N)n1 [Compound I-10, (6R,7R)-7-[(Z)-2-(5-amino-1,2,4-thiadiazol-3-yl)-2-(ethoxyimino)acetamido]-3-(2,6-diamino-1-methylpyrimidinium-4-yl)thiomethyl-3-cephem-4-carboxylate] | 8 (≈ 14.1 µM) | 4 (≈ 7.06 µM) | 0.13 (≈ 0.229 µM) | 0.5 (≈ 0.882 µM) | 1 (≈ 1.76 µM) | 0.25 (≈ 0.441 µM) | 0.13 (≈ 0.229 µM) | ≤ 0.008 | 0.5 (≈ 0.882 µM) | 0.016 (≈ 0.0282 µM) | 0.031 (≈ 0.0547 µM) | 0.13 (≈ 0.229 µM) | 0.13 (≈ 0.229 µM) | 0.25 (≈ 0.441 µM) | 0.5 (≈ 0.882 µM) | ≤ 0.008 | 0.016 (≈ 0.0282 µM) | 0.25 (≈ 0.441 µM) | 0.25 (≈ 0.441 µM) | 0.063 (≈ 0.111 µM) | MIC [21]: 0.016 µg/mL (≈ 0.0282 µM); MIC [22]: 0.25 µg/mL (≈ 0.441 µM); MIC [23]: 128 µg/mL (≈ 226 µM); MIC [24]: 1 µg/mL (≈ 1.76 µM); MIC [25]: 0.25 µg/mL (≈ 0.441 µM) |

From patent US5292733A, “Cephalosporin compounds” (Lucky Limited, priority 1991, dated 1994)
